The record followed here is patent US12410136B2, “Pyridinyl morpholine compound, preparation method therefor, and application thereof” (SHANGHAI ZHONGZE THERAPEUTICS, CO. LTD., priority 2020, dated 2025).

For one experiment, the target named is T1, H1 receptor (Homo sapiens, UniProt P35367).
T1 construct: expressed in transfected cells; host or cells: HEK-293
The experiment can be described thus: H1 receptor binding test. Conditions: 1 nM [3H]pyrilamine, HEK-293 cell membrane homogenate; read-out: Affinity of the compound for H1 receptor (Ki value, nM) H1. The procedure:
Non-specific binding was determined in the presence of 1 μM pyrilamine.

Another experiment concerns the target T2, 5-HT2A receptor (Homo sapiens, UniProt P28223).
T2 construct: expressed in transfected cells; host or cells: HEK293
Nature of the experiment: 5-HT2A receptor binding test. Conditions: [3H]-Ketanserin, 5-HT2A receptor expressed in HEK293 cells; read-out: Affinity of the compound for each receptor (Ki value, nM) 5-HT2A. The source says:
5-HT2A Receptor Binding Test
Beckman LS-6500 multifunctional liquid scintillation counter.
Tris-HCl reaction buffer (pH 7.7) was used to resuspend in the experiment.

The target in the next experiment is D2 receptor (Homo sapiens, UniProt P14416). Nature of the experiment: Dopamine D2 receptor binding test.
Experiment [1] deals with T3, human recombinant D3 receptor (Homo sapiens, UniProt P35462).
T3 construct: expressed in transfected cells; host or cells: CHO
The experiment can be described thus: Dopamine D3 receptor binding test. Conditions: [3H]methyl-spiperone 0.3 nM, human recombinant D3 receptor expressed in CHO cells; read-out: Affinity of the compound for each receptor (Ki value, nM) D3. As to the method:
Dopamine D3 Receptor Binding Test
[^3H]methyl-spiperone (0.3 nM) was used as the ligand, and (+)-butaclamol (10 μM) was used to determine the non-specific binding, and the binding assay was performed on human recombinant D3 receptor (expressed in CHO cells).

T3 sequence (P35462 whole entry): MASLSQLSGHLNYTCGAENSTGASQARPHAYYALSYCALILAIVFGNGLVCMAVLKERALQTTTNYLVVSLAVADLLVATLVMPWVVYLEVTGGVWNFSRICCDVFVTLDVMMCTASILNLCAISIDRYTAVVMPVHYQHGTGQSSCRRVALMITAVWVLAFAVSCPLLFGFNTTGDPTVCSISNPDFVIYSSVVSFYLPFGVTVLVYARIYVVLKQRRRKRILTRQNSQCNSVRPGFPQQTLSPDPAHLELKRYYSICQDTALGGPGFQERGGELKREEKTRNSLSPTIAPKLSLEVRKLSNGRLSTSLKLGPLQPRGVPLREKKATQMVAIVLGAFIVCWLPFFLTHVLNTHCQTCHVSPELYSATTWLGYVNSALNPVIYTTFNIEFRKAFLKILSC
T1 sequence (P35367 whole entry): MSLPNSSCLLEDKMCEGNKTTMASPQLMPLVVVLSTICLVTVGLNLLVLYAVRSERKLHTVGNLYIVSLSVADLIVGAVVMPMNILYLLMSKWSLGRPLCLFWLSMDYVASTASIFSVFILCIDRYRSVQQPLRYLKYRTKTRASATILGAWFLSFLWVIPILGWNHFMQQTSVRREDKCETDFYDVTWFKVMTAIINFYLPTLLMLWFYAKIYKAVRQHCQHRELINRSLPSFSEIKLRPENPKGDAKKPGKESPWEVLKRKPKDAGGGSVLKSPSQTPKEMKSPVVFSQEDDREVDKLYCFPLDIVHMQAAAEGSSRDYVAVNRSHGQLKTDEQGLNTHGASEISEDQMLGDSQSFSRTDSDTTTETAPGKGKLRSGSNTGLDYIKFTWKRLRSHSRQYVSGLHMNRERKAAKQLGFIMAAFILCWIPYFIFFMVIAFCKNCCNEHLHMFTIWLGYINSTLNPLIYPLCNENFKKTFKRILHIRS
T2 sequence (P28223 whole entry): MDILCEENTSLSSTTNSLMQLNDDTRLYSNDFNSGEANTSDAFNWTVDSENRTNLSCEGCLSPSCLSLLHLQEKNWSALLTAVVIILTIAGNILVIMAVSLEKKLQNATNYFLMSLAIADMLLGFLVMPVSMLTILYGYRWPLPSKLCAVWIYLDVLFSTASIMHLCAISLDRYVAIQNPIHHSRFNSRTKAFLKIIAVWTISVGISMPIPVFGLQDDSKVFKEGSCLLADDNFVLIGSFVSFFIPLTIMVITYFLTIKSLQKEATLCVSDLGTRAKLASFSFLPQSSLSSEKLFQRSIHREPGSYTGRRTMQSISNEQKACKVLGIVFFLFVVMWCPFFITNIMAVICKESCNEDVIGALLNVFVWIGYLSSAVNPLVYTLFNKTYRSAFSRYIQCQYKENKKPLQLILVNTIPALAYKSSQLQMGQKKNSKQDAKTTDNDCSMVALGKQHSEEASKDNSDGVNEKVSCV
D2 receptor, sequence (P14416 whole entry): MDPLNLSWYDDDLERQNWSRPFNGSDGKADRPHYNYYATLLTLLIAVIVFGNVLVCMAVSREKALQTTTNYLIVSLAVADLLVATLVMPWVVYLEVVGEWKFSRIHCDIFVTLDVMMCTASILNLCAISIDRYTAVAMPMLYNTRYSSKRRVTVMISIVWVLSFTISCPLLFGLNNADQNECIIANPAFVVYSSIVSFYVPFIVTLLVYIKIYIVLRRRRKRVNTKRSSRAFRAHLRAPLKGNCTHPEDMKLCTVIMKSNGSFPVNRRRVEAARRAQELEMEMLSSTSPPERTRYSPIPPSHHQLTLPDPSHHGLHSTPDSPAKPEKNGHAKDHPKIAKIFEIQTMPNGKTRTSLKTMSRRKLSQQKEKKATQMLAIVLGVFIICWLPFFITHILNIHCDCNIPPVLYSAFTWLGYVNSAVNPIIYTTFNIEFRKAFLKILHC
Procedure for D2 receptor: Dopamine D2 Receptor Binding Test
In this experiment, HEK293 cells were transfected with plasmid vector containing D2 receptor protein gene, and calcium phosphate transfection method was used and after transfection, the cells were cultured in a culture solution containing G418, and the cell monoclonal and radioligand binding experiments were selected, and finally a stable cell line which could stably express D2 receptor protein was obtained.
HeK-293 cells were infected with recombinant viruses containing the above various genes respectively, and after 48-72 hours, the receptor proteins were expressed in large quantities on the membrane, and the cells were centrifuged at 1000 rpm for 5 min and then the culture solution was discarded, and the cells were collected, and stored in a −20° C. refrigerator for later use. Tris-HCl reaction buffer (pH=7.5) was used to resuspend in the experiment.
On the Millipore cell sample collector, the mixture was quickly filtrated under reduced pressure through GF/C glass fiber filter paper, and eluted with 3 mL of eluent (50 mMTris-HCl, pH 7.5) for 3 times, then dried under microwave for 5 to 6 min. The filter paper was moved into a 0.5 mL centrifuge tube, and 500 μL of lipid-soluble scintillation solution was added. The mixture was kept in the dark for more than 30 min, and the radioactivity intensity was determined by counting. […] Two replicate tubes were made for each experiment of compound, and two separate experiments were performed.
Two tubes were tested for each concentration and two independent tests were performed for each compound.

Usually Ki stands for a measure of affinity in units of concentration, obtained from inhibition or displacement. For `CC(=O)N[C@H]1CC[C@H](CCN2CCN(c3cc(-c4ccccc4)cc(N4CCOCC4)n3)CC2)CC1` [Compound I-1, N-(trans-4-(2-(4-(6-morpholino-4-phenylpyridin-2-yl)piperazin-1-yl)ethyl)cyclohexyl)acetamide], the Ki amounted to 760 nM on H1 receptor, 1.7 nM on 5-HT2A receptor, 3.1 nM at D2 receptor and 0.2 nM in experiment [1].
The like results for `CCCC(=O)N[C@H]1CC[C@H](CCN2CCN(c3cc(-c4ccccc4)cc(N4CCOCC4)n3)CC2)CC1` [Compound I-2, N-(trans-4-(2-(4-(6-morpholino-4-phenylpyridin-2-yl)piperazin-1-yl)ethyl)cyclohexyl)butyramide] were, in that order, 950 nM, 1.9 nM, 1.2 nM and 0.1 nM.
On to `O=C(N[C@H]1CC[C@H](CCN2CCN(c3cc(-c4ccccc4)cc(N4CCOCC4)n3)CC2)CC1)C1CC1` [Compound I-4, N-((trans)-4-(2-(4-(6-morpholino-4-phenylpyridin-2-yl)piperazin-1-yl)ethyl)cyclohexyl)cyclopropanecarboxamide], for which the Ki worked out at 550 nM on H1 receptor, 3.9 nM on 5-HT2A receptor, 2 nM at D2 receptor and 0.05 nM in experiment [1].
The like results for `O=C(N[C@H]1CC[C@H](CCN2CCN(c3cc(-c4ccccc4)cc(N4CCOCC4)n3)CC2)CC1)C1CCCCC1` [Compound I-5] were, in that order, more than 1000 nM, 1.1 nM, 8.6 nM and 0.9 nM.
On the same counts, the results for `CN(C)C(=O)N[C@H]1CC[C@H](CCN2CCN(c3cc(-c4ccccc4)cc(N4CCOCC4)n3)CC2)CC1` [Compound I-7, 1,1-dimethyl-3-(trans-4-(2-(4-(6-morpholino-4-phenylpyridin-2-yl)piperazin-1-yl)ethyl)cyclohexyl)urea] are 420 nM, 0.2 nM, 0.12 nM and 0.01 nM.
The like results for `CC(=O)N[C@H]1CC[C@H](CCN2CCN(c3cc(-c4ccco4)cc(N4CCOCC4)n3)CC2)CC1` [Compound V-1, N-(trans-4-(2-(4-(4-(furan-2-yl)-6-morpholinopyridin-2-yl)piperazin-1-yl)ethyl)cyclohexyl)acetamide] were, in that order, 530 nM, 1.6 nM, 8.1 nM and 0.7 nM.
Take `COCC(=O)N[C@H]1CC[C@H](CCN2CCN(c3cc(-c4ccco4)cc(N4CCOCC4)n3)CC2)CC1` [Compound V-2, N-(trans-4-(2-(4-(4-(furan-2-yl)-6-morpholinopyridin-2-yl)piperazin-1-yl)ethyl)cyclohexyl)-2-methoxyacetamide]: the Ki at H1 receptor turned out to be 740 nM; at 5-HT2A receptor, 8.8 nM; on D2 receptor, 15.2 nM.
With `CN(C)C(=O)N[C@H]1CC[C@H](CCN2CCN(c3cc(-c4ccco4)cc(N4CCOCC4)n3)CC2)CC1` [Compound V-3, 3-(trans-4-(2-(4-(4-(furan-2-yl)-6-morpholinopyridin-2-yl)piperazin-1-yl)ethyl)cyclohexyl)-1,1-dimethylurea], the inhibitory constant (Ki) on H1 receptor was found to be 800 nM; at 5-HT2A receptor, 5 nM; at D2 receptor, 7.1 nM; in experiment [1] it was 0.07 nM.
The like results for `O=C(N[C@H]1CC[C@H](CCN2CCN(c3cc(-c4ccco4)cc(N4CCOCC4)n3)CC2)CC1)N1CCCCC1` [Compound V-4, N-(trans-4-(2-(4-(4-(furan-2-yl)-6-morpholinopyridin-2-yl)piperazin-1-yl)ethyl)cyclohexyl)piperidine-1-carboxamide] were, in that order, more than 1000 nM, 2.8 nM, 10.6 nM and 0.3 nM.
On the same counts, the results for `O=C(N[C@H]1CC[C@H](CCN2CCN(c3cc(-c4ccc(F)cc4)cc(N4CCOCC4)n3)CC2)CC1)c1ccccc1` [II-1, N-(trans-4-(2-(4-(4-(4-fluorophenyl)-6-morpholinopyridin-2-yl)piperazin-1-yl)ethyl)cyclohexyl)benzamide] are 670 nM, 2.3 nM, 1.7 nM and 0.2 nM.
The like results for `O=C(N[C@H]1CC[C@H](CCN2CCN(c3cc(-c4ccc(F)cc4)cc(N4CCOCC4)n3)CC2)CC1)c1ccco1` [II-3, N-(trans-4-(2-(4-(4-(4-fluorophenyl)-6-morpholinopyridin-2-yl)piperazin-1-yl)ethyl)cyclohexyl)furan-2-carboxamide] were, in that order, 980 nM, 1.2 nM, 1.4 nM and 0.09 nM.
For `CNC(=O)N[C@H]1CC[C@H](CCN2CCN(c3cc(-c4ccc(F)cc4)cc(N4CCOCC4)n3)CC2)CC1` [II-4, 1-(trans-4-(2-(4-(4-(4-fluorophenyl)-6-morpholinopyridin-2-yl)piperazin-1-yl)ethyl)cyclohexyl)-3-methylurea], the inhibition constant Ki on H1 receptor came out at 540 nM; at 5-HT2A receptor, 0.9 nM; at D2 receptor, 2.8 nM; in experiment [1] it was 0.3 nM.
Turning to `CN(C)C(=O)N[C@H]1CC[C@H](CCN2CCN(c3cc(-c4ccc(F)cc4)cc(N4CCOCC4)n3)CC2)CC1` [II-5, 3-(trans-4-(2-(4-(4-(4-fluorophenyl)-6-morpholinopyridin-2-yl)piperazin-1-yl)ethyl)cyclohexyl)-1,1-dimethylurea], the inhibitory constant (Ki) on H1 receptor came out at 300 nM.
As to `COc1ccc(-c2cc(N3CCOCC3)nc(N3CCN(CC[C@H]4CC[C@H](NC(=O)N5CCCC5)CC4)CC3)c2)cc1` [III-1, N-(trans-4-(2-(4-(4-(4-methoxyphenyl)-6-morpholinopyridin-2-yl)piperazin-1-yl)ethyl)cyclohexyl)tetrahydropyrrole-1-carboxamide], the inhibition constant (Ki) on H1 receptor was more than 1000 nM; on 5-HT2A receptor, 10.8 nM; at D2 receptor it was 3.2 nM; in experiment [1] it was 0.2 nM.
Take `COc1ccc(-c2cc(N3CCOCC3)nc(N3CCN(CC[C@H]4CC[C@H](NC(=O)N5CCOCC5)CC4)CC3)c2)cc1` [III-2, N-(trans-4-(2-(4-(4-(4-methoxyphenyl)-6-morpholinopyridin-2-yl)piperazin-1-yl)ethyl)cyclohexyl)morpholine-4-carboxamide]: the Ki was more than 1000 nM at H1 receptor, 5.1 nM at 5-HT2A receptor, 1.9 nM at D2 receptor and 0.07 nM in experiment [1].
Take `COc1ccc(-c2cc(N3CCOCC3)nc(N3CCN(CC[C@H]4CC[C@H](NC(=O)N5CCN(C)CC5)CC4)CC3)c2)cc1` [III-4, N-(trans-4-(2-(4-(4-(4-methoxyphenyl)-6-morpholinopyridin-2-yl)piperazin-1-yl)ethyl)cyclohexyl)-4-methylpiperazine-1-carboxamide]: the Ki at H1 receptor is 980 nM; on 5-HT2A receptor it was 6.6 nM; at D2 receptor, 11.8 nM.
The like results for `O=C(N[C@H]1CC[C@H](CCN2CCN(c3cc(-c4ccc[nH]4)cc(N4CCOCC4)n3)CC2)CC1)C1CCCCC1` [VII-3, N-(trans-4-(2-(4-(6-morpholino-4-(1H-pyrrol-2-yl)pyridin-2-yl)piperazin-1-yl)ethyl)cyclohexyl)cyclohexanecarboxamide] were, in that order, 870 nM, 3.8 nM and 5.1 nM.
